{"source": "patent US20060286626A1", "about": "“Selective chromophores” (priority 2002, published 2006)", "format_in_all_cases": "cell-based", "key": {"[1]": {"tested_on": "sections of testis from rat", "assay": "Fluorescent staining of testis sections from rat", "conditions": "for cells stained / affinity in testis: 15 minutes incubation, concentration not given; for concentration dependence of staining in testis: 0.05-50 μg/ml", "experimental": "Testis tissues were obtained from a male Sprague-Dawley rat, which has been used as a control in another study. The tissues were fixed in 4% formaldehyde, imbedded in paraffin and sectioned into 4 μm thick slices before dewaxed and hydrated. Stock solutions containing 5 mg dye/ml DMSO and ethanol were made. These were diluted to 0.05, 0.5, 5, 10, and 50 μg/ml with water. At the time of the experiment, 100 μl from each solution was added to the sections, respectively. The sections were incubated for 15 minutes before the excess dye was removed by washing with water.\nTo se if and if so, the position of benzosuccinimidyl as a substituent alters the affinity of the dyes testis was stained with the two PASU dyes.\n(§1) Fluorescence microscopic experiments were performed with a Zeizz (West Germany) microscope equipped with Plan Neofuar 40/0.9 I mm Ph3 and Plan Neofuar 25/0.8 W-Oel Ph2 objectives. A Winder M35 camera was used to obtain the microscopic images."}, "[2]": {"tested_on": "small intestine sections from rats", "assay": "Fluorescent staining of small intestine sections from rat", "source_text": "Derivatives of Nile Red (FIG. 1) were synthesized and their staining of testis and small intestine sections from rats were studied. Nile Red is a member of benzophenoxazine compounds that provide a family of fluorescent dyes, which can be used, for labelling biological molecules in various applications. The phenoxazine dyes tend to have a large Stokes' shift of 80-100 nm. Nile Red is a highly fluorescent dye, which absorbs energy above 550 nm. Consequently it has mainly been used for lipid staining but also as a solvatrochromic probe to measure the solvent strength of several liquids.\nas §1"}, "[3]": {"tested_on": "human cell line of fibro sarcom, HT80", "assay": "Staining of human fibro sarcoma cells", "conditions": "live HT80 cells, 5 μg/ml, without Triton-x", "source_text": "The positively charged part of the molecule might bind to the anionic phosphate group of phospholipids present in the plasma membrane. Since the PASU dyes are uncharged and relatively small molecules they have the ability to pass through the outer layer of the cells. […] To answer the question of what the dyes have affinity for further investigations have to be performed. Furthermore the dyes can be used for detection of receptors of cells. […] By adding a substance that induce conformational changes of the receptor which result in that the dye fit to the receptor, or use a dye with a substituent that fit in the inactivated receptor, the targets, receptors, can be detected as small fluorescent particles, so called pits. Thus, the dyes can be used to detect receptors and follow conformational changes of the receptor, activation-inactivation of receptor.\nThe stock solutions of the dyes were diluted with PBS or PBS+Triton-x to 5 μg/ml when added to both fixed and unfixed mature fibro sarcoma cells, cell line HT 80. Due to lack of time only the live cells untreated with Triton-x are discussed in the result."}}, "note": "Entries after “also recorded” stand apart in the source; their conditions may differ.", "data": [{"compound": "CN(C)c1ccc2nc3c4cc(OCCCN5C(=O)c6ccccc6C5=O)ccc4c(=O)cc-3oc2c1", "note": "[PASU-1, 1-[3-(9-Dimethylamino-5-oxo-5H-benzo[a]phenoxazine-2-yloxy)-propyl]-isoindole-1,3-dione]", "values": [{"measurement": "cells stained / affinity in testis", "setting": "[1]", "value": "does not have any affinity"}]}, {"compound": "CN(C)c1ccc2nc3c4cc(OCCCN)ccc4c(=O)cc-3oc2c1", "note": "[PA-2, 2-(3-Amino-propoxy)-9-dimethylamino-benzo[a]phenoxazine-5-one]", "values": [{"measurement": "concentration dependence of staining in testis", "setting": "[1]", "value": "the concentration of the dye added to the tissue determined which cells that were stained"}, {"measurement": "cells stained / affinity in testis", "setting": "[1]", "value": "stains stem cells selectively; also recorded: stains stem cells and spermatocytes; also recorded: high affinity for stem cells and spermatocytes; also recorded: has affinity for stem cells at low concentrations"}, {"measurement": "cells stained in testis", "setting": "[1]; dye 0.05 μg/ml", "value": "only stem cells were stained"}, {"measurement": "cells stained in testis", "setting": "[1]; dye 0.5 μg/ml", "value": "germ cells and spermatides fluoresced as well"}, {"measurement": "cells stained in testis", "setting": "[1]; dye 10 μg/ml", "value": "spermatocytes were stained as well"}, {"measurement": "structures stained in small intestine", "setting": "[2]; slices of small intestine from rat", "value": "all nucleuses"}]}, {"compound": "CN(C)c1ccc2nc3c4cc(OCCCN5C(=O)c6ccccc6C5=O)ccc4c(=O)cc-3oc2c1", "note": "[PASU-2, 2-[3-(9-Dimethylamino-5-oxo-5H-benzo[a]phenoxazine-2-yloxy)-propyl]-isoindole-1,3-dione]", "values": [{"measurement": "cells stained / affinity in testis", "setting": "[1]", "value": "stains spermatides and spermatozoa; also recorded: stain different cells and parts of cells; also recorded: has preferences to sperms and spermatides; also recorded: binds to spermatides and spermatozoa"}, {"measurement": "concentration dependence of staining in small intestine", "setting": "[2]; small intestine from rat", "value": "differs a lot with the concentration of dye"}, {"measurement": "part of the cell stained", "setting": "[3]", "value": "stains the cytoplasm but not the nucleus"}]}, {"compound": "CN(C)c1ccc2nc3c4cc(OCCC[N+](C)(C)C)ccc4c(=O)cc-3oc2c1", "note": "[PATM-2, 9-Dimethylamino-2-(trimethylammonium-propoxy)-benzo[a]phenoxazin-5-one]", "values": [{"measurement": "concentration dependence of staining in testis", "setting": "[1]", "value": "no concentration dependence"}, {"measurement": "cells stained / affinity in testis", "setting": "[1]", "value": "stains germ cells"}, {"measurement": "part of the cell stained", "setting": "[3]", "value": "stains the plasma membranes of the cells"}, {"measurement": "permeability of the plasma membrane", "setting": "[3]", "value": "does not reach into the cytoplasm of the cells"}]}, {"compound": "CN(C)c1ccc2nc3c4cc(OCCCN5C(=O)c6ccccc6C5=O)ccc4c(=O)cc-3oc2c1", "note": "[PASU-3, 3-[3-(9-Dimethylamino-5-oxo-5H-benzo[a]phenoxazine-2-yloxy)-propyl]-isoindole-1,3-dione]", "values": [{"measurement": "cells stained / affinity in testis", "setting": "[1]", "value": "stain different cells and parts of cells; also recorded: stains stem cells but not spermatides and spermatozoa"}]}]}
